Test results from PubChem BioAssay AID2691 (Broad Institute, 2010).
Values after ≈ are worked out from the molar mass of the structure shown. Inconclusive results are not listed. Active and inactive are the calls of the source.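 How the source made its calls: active means dose-dependent viability drop with mean lowest dose clearly under solvent controls below the top tested dose; inconclusive means self-fluorescent without titration, or replicates split around top dose; inactive means no such drop up to the top dose.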

What follows are compounds tested on NIH 3T3 viability, Alamar Blue fluorescence, 3 days (assay: NIH 3T3 cell viability reduction, dose response, cytotoxicity control for polyadenylation inhibitor project, Alamar Blue fluorescence, MIC (AID 2691)).
With `Cc1ccc2nc(/C(C#N)=C/c3ccc([N+](=O)[O-])o3)[nH]c2c1` the MIC was 0.8 µM (≈ 0.235 µg/mL). With `N#CC1(C#N)C2=C(CCCC2)NC(c2ccccc2)C1(C#N)C#N` (stereo not given) the MIC was > 25 µM (inactive). `COc1cc(/C=C2\SC(=S)N(NC(=O)c3ccncc3)C2=O)ccc1O` was tested, and the MIC was > 25 µM (inactive). For `COc1cc(/C=C2/CC/C(=C/c3ccc(O)c(OC)c3)C2=O)ccc1O`, the MIC was > 25 µM (inactive). `N#C/C(=C/c1ccc([N+](=O)[O-])o1)c1nc2ccccc2[nH]1` showed an MIC of 1.6 µM (≈ 0.448 µg/mL). `Cc1ccc(C(=O)c2no[n+]([O-])c2C(=O)c2ccc(C)cc2)cc1` was tested, and the MIC was 1.6 µM (≈ 0.516 µg/mL). For `Nc1ncnc2c1ncn2C1OC(CO)CC1O` (stereo not given), the MIC was > 25 µM (inactive). `CC(=O)c1ccc(Sc2ccccc2)c([N+](=O)[O-])c1` was tested, and the MIC was > 25 µM (inactive). `O=C(Oc1c(-c2ccccc2)c(=O)n2c3c(cccc13)CC2)c1cccc([N+](=O)[O-])c1` was tested, and the MIC was > 25 µM (inactive). For `CCOc1cc(/C=C2\N=C(SC(C)C(N)=O)N(c3ccc(OC(F)F)cc3)C2=O)ccc1O` (stereo not given), the MIC was > 25 µM (inactive). `CCN1/C(=C\C=C\c2sc3ccccc3[n+]2CC)Sc2ccccc21` was tested, and the MIC was > 25 µM (inactive). For `Cc1ccc(-c2nn3c(C)nnc3s2)cc1NC(=O)CSc1ccc(Cl)cc1`, the MIC was > 25 µM (inactive). `O=C(COC(=O)Cc1ccc(S(=O)(=O)N2CCOCC2)s1)NCc1ccc(Cl)cc1` was tested, and the MIC was > 25 µM (inactive). In the case of `COc1cc(/C=C2\SC(=S)N(NC(=O)c3cccnc3)C2=O)ccc1O`, the MIC is reported as > 25 µM (inactive). With `Cc1ccc(Nc2c(-c3ccc(C)o3)nc3ncccn23)cc1` the MIC was > 25 µM (inactive).
